Values after ≈ are worked out from the molar mass of the structure shown. Values joined by “and” are separate entries in the source; they are usually repeats but may differ in a detail not shown here. Equal entries are not always repeated.
Experiments:
AML/MDS patients [1] = assay: ECG QTcF prolongation (Fridericia), graded; type: in vivo
Method: Electrocardiograms were obtained at screening, Cycle 1 Day 1–4, 8, and 15, Cycle 2 Day 1, 8 and 15, at Day 1 of each cycle thereafter, (up to and including Cycle 15), and at Final Study Visit. QT prolongation was assessed using the Fridericia correction QTcF=QT/RR3 [34]. Severity of QTcF prolongation was defined as follows: Grade 1: maximum prolongation 450–480 ms; Grade 2: maximum prolongation 481-500 ms; Grade 3: ≥501 ms on at least two separate ECGs; Grade 4: ≥501 ms or >60 ms change from baseline, with Torsades de pointes, polymorphic ventricular tachycardia or signs/symptoms of serious arrythmia; Grade 5: Death.

pSTAT5 Y694 = assay: CyTOF maximal inhibition in Undefined/Immature Myeloid cells: pSTAT5; type: in vivo, human
Text: (§1) Pharmacodynamic endpoints included the measurement of inhibition of pAXL, pERK, pAKT, pS6 and pSTAT1/3/5 in blast cells (defined as cells with abnormal surface marker expression as compared to healthy donor peripheral blood mononuclear cells and undefined/immature myeloid cells (defined as cells carrying myeloid markers but lacking distinguishing terminal differentiation markers). Mass cytometry time of flight (CyTOF) was used for the determination of the pharmacodynamic markers using a previously validated and tested panel of mass-tagged antibodies[39],[40]. The antibodies in the panel are listed in Supplementary Table 5. Briefly, fixed leukocytes from peripheral blood were barcoded using a 20-plex metal barcoding kit (Standard Biotools, Cell-ID 201060) according to manufacturer’s protocol, allowing all the samples from a single individual to be stained and analysed in parallel. All analysis runs included barcoded peripheral blood mononuclear cells (PBMCs) from at least one healthy donor and an identical barcoded reference sample (mix of PBMCs from six healthy donors). […]
(§2) For each population, marker, and sample, the 95th percentile of the non-transformed expression values was calculated. […]

pAKT S473 = assay: CyTOF maximal inhibition in Undefined/Immature Myeloid cells: pAKT; type: in vivo, human
Text: as §1, §2

AML/MDS patients [2] = assay: Kaplan-Meier OS, EFS, RFS; type: in vivo, human
Method: Response assessments (peripheral blood and BM) were performed at Cycle 2 Day 1 (pre-dose), Cycle 4 Day 1 (pre-dose) and repeated every 3 cycles thereafter or when clinically indicated. Patients who completed 12 months of study treatment and had not experienced progressive disease (PD) underwent response assessment every 5 cycles until PD was confirmed. Efficacy endpoints were: Objective response rate (ORR), defined as the number of patients with CR, CRi, MLFS, MR or PR divided by the total number of patients in the cohort/group; Disease control rate (DCR), defined as the number of patients with CR, CRi, MLFS, MR, PR or unchanged disease for at least three cycles (considered to have stable disease (SD)) divided by the total number of patients in the cohort/group; Overall survival (OS), defined as (date of death or censoring) – (date of the first study treatment) +1. Censoring date was the last date the patient was known to be alive; Event free survival (EFS), defined as (earliest of date of death, date of progression or date of censoring) – (date of the first study treatment) +1, with event defined as death or progression. Patients who started a new anti-cancer treatment before documented progression were censored at the date of the last assessment prior to start of non-protocol treatment. […] Patients who were alive without documented progression on the last day of contact were censored at the date of the last assessment.
Analyses were performed on response data, AEs, and PK parameters. Subgroup analysis by sex was not performed due to the small number of patients. Statistical analyses were performed using descriptive statistics. The time-to-event variables RFS, EFS, and OS were analyzed using Kaplan-Meier estimates, and median time-to-event was reported alongside its 95% confidence interval (CI). Where relevant, differences between different subgroups for time-to-event endpoints were assessed using a one-tailed log-rank test.

human lymphocytes = tested on: human lymphocytes; set-up: method as in Investigator's Brochure (IB) version 5.0; conditions: ref Investigator's Brochure (IB) version 5.0; cited from earlier work

In the case of `Nc1nc(Nc2ccc3c(c2)CC[C@@H](N2CCCC2)CC3)nn1-c1cc2c(nn1)-c1ccccc1CCC2` [Bemcentinib], the “Grade 4 or Grade 5 QTcF prolongation events” value (AML/MDS patients [1]; DE and LDAC cohorts) is reported as “No patients”, the “No. of QTcF prolonged events: Grade 5” value (AML/MDS patients [1]; Dose Escalation Cohort Overall (N=36)) is reported as 0 and the “No. of QTcF prolonged events: Grade 1” value (AML/MDS patients [1]; human, in vivo) is reported as 8. For the same compound, the “No. of QTcF prolonged events: Grade 2” value (AML/MDS patients [1]; human, in vivo) was 7, the “No. of QTcF prolonged events: Grade 3” value (AML/MDS patients [1]; human, in vivo) was 5 and the “No. of QTcF prolonged events: Grade 4” value (AML/MDS patients [1]; human, in vivo) was 0. The “Patients with only Grade 1 or Grade 2 QTcF prolongation / patients with QTcF prolongation” value (AML/MDS patients [1]; human, in vivo) was 5/9, the “Patients with Grade 3 QTcF prolongation” value (AML/MDS patients [1]; in vivo) was “Four” and the EC50 (pSTAT5 Y694; Homo sapiens, Undefined/Immature Myeloid cells, N = 12 patients, read-out: EC50 (± standard error), pSTAT5 Y694 inhibition) was 0.0913 ± 0.0014 µg/mL (≈ 0.18 µM). The “Maximum inhibition (percent) pSTAT5 (Y694)” value (pSTAT5 Y694; Supplementary Figure 1b, individual patients) was 86.7% and 72.9% and 100% and 27.9% and 21.4% and 51.2% and 0% and 36% and 58.4%, the EC50 (pAKT S473; Homo sapiens, Undefined/Immature Myeloid cells, N = 12 patients, read-out: EC50 (± standard error), pAKT S473 inhibition) was 0.162 µg/mL (≈ 0.32 µM) and the “Maximum inhibition (percent) pAKT (S473)” value (pAKT S473; Supplementary Figure 1d, individual patients) was 59.9% and 67.4% and 81.4% and 10.2% and 98.8% and 2.4% and 56.3% and 0% and 5.8% and 33.9% and 39.1% and 94.9%. For the same compound, the “mEFS (95% CI)” value (AML/MDS patients [2]; DE 200/100 mg, N=4) was 4.4 (0.5-NA) months, the “mOS (95% CI)” value (AML/MDS patients [2]; DE 200/100 mg, N=4) was 5.9 (4.4-NA) months and the “mEFS (95% CI)” value (AML/MDS patients [2]; DE 400/100 mg, N=6) was 5.3 (2.6-NA) months. The “mOS (95% CI)” value (AML/MDS patients [2]; DE 400/100 mg, N=6) was 19 (2.6-NA) months, the “mEFS (95% CI)” value (AML/MDS patients [2]; DE 400/200 mg, N=7) was 1.6 (0.7-NA) months and the “mOS (95% CI)” value (AML/MDS patients [2]; DE 400/200 mg, N=7) was 8.6 (0.8-NA) months. For the same compound, the “mEFS (95% CI)” value (AML/MDS patients [2]; DE 600/200 mg, N=14) was 1.2 (0.7-2.1) months, the “mOS (95% CI)” value (AML/MDS patients [2]; DE 600/200 mg, N=14) was 2.5 (1.1-NA) months and the “mOS (95% CI)” value (AML/MDS patients [2]; DE 900/300 mg, N=5) was 6.9 (NA-NA) months. For the same compound, the “mEFS (95% CI)” value (AML/MDS patients [2]; DE overall, N=36) was 2.1 (1.4-2.8) months, the “mOS (95% CI)” value (AML/MDS patients [2]; DE overall, N=36) was 5.3 (2.6-9.1) months and the “In vitro mammalian cell cytogenetic study result” value (human lymphocytes) was “negative”.
